Where a SMILES comes first, the peptide text is derived from it. Where no end group is shown, it is not given here. Eth = ethionine
Assays:
PB1X-9B [1] = assay: Growth on peptides as amino acid source, peptide transport mutant; format: cell-based, Saccharomyces cerevisiae; conditions: PBIX-9B; 80 μM peptide in SC medium, 30° C., 72 hrs
Method: (§1) In addition, untransformed PB1X-9B, PB1X-9B transformed with plasmid pJP9 encoding the above-described yeast peptide transport gene, PB1X-2AΔ and PB1X-2A, the ptr2^+ parental strain to PB1X-2AΔ strain, were also assayed. Each strain was grown overnight in SC media plus uracil (non-transformed) or minus uracil (transformed) plus amino acids to stationary phase and harvested by centrifugation. Cells were then washed twice with sterile dH2 O and resuspended at 5×10^6 cells/ml. 5 μl of each suspension was applied as a small spot to a 2 ml volume of solid media in a 24 well plate. All peptides were suspended in sterile, deionized water and added to an equal volume of SC medium plus the appropriate amino acids and uracil when required. The medium for each assay thus consisted of SC medium plus or minus uracil supplemented with 80 μM of a specific peptide and auxotrophic requirements minus the amino acid components of the added peptide. The plates were incubated at 30° C. for 72 hrs. and then scored for growth.

PB1X-9B (pJP9) [2] = assay: Growth on peptides, mutant transformed with yeast peptide transport gene; format: cell-based, Saccharomyces cerevisiae; conditions: for growth on peptide: PBIX-9B (pJP9), 80 μM peptide in SC medium, 30° C., 72 hrs; for growth on peptide (in words): PB1X-9B transformed with pJP9
Method: as §1

PB1X-9B (pPTF4) [3] = assay: Growth on peptides, mutant transformed with plant gene ATPTR2A; format: cell-based, Saccharomyces cerevisiae; conditions: PBIX-9B (pPTF4); 80 μM peptide in SC medium, 30° C., 72 hrs
Method: as §1

ATPTR2Ap = assay: Uptake of L-leucyl-L-[3H]leucine and competition, PB1X-9B[pPTF4]
Method: The kinetics of ATPTR2A-mediated transport of peptides in yeast was evaluated by transforming pPTF4 into the S. cerevisiae peptide transport mutant, PB1X-9B and measuring the uptake of tritiated Leu-Leu dipeptide.
L-leucyl-L [^3 H]leucine trifluoroacetic acid (TFA) was synthesized by standard solution phase techniques (Naider, F. et al., J. Biol. Chem. 249:9-20 (1974)). Uptake of L-leucyl-L-[H]leucine was performed as by Island, M. D. et al (J. Bacteriol. 169:2132-2136 (1987)), with the following modifications. Cells were grown to late log phase (26×10^7 cells/ml) overnight in SC with 2% glucose, 1 mg/ml allantoin plus amino acids to supplement auxotrophic markers. To induce peptide transport. 5-15 ml from this culture was added to 100 ml fresh medium such that the density was 3.0×10^6 cells/ml. This culture was allowed to grow (approx. 2 hrs.) to a density of 6.0×10^6 cells/ml and then harvested by centrifugation. The pelleted cells were washed twice with 10 ml cold dH2 O and suspended in cold 2% glucose to a final concentration of 2×10^8 cells/ml and incubated at 30° C. for 15 min. 500 μl of cells were then added to an equal volume of reaction mixture (30° C.) and incubated at 30°-C. At 20, 40, 60, 90, and 120 sec. intervals, 190 μl portions were removed, filtered over filters (pore size, 0.45 μm; GN-6; Gelman Sciences, Inc., Ann Arbor, Mich.) and washed 2 times with 5 ml cold, sterile dH2 O and once with 5 ml dH2 O at room temperatures. Filters were placed in scintillation vials with 5 ml of Budget-Solve scintillation cocktail (Research Products International Corp., Mount Prospect, Ill.) and counted (liquid scintillation counter; LS-7000; Beckman Instruments, Inc., Fullerton, Calif.). The final concentration of the components in the uptake assay was 1% glucose, 40 mM sodium citrate-potassium phosphate buffer (pH 5.5), and 1.5×105 M L-leucyl-L-[^3 H]leucine (specific activity, 10 mCi/mmole). Uptake is expressed as nanomoles per mg dry weight.

A. thaliana seedlings = assay: Root assay, toxic peptide plus competitor peptide; format: in vivo, Arabidopsis thaliana
Method: Approximately 15 A. thaliana seeds were placed in a row at one end of 10 cm plate containing 20 ml of Arabidopsis growth media (Kranz and Kirchheim 1987). The seeds were incubated 3-5 days in the light with the plate set in an upright position. When the roots were approximately 1-2 cm long, sterile paper filter disks were placed immediately in front of the root tips on the right and left side of the plate 2 cm from the edge of the plate. A line was drawn across the plate using the top of the disks as a guide marking zero growth. 5 μl of toxic amino acid analog, toxic peptide, or toxic peptide plus competitor was added to one disk while H2 O was place on the other disk. The plates were incubated for an additional 3-5 days. The average length of the roots was measured from the line and the results expressed as a percentage of control root growth.

A. thaliana seeds = assay: Seed germination with toxic peptides (minimum inhibitory concentration); format: in vivo, Arabidopsis thaliana; conditions: seeds exposed to the toxic compound
Method: Thus, A. thaliana seeds and seedlings were exposed to Ethionine, Ala-Eth, Leu-Eth, Leu-fluorophenylalanine or oxalysine containing peptides, and the minimum inhibitory concentrations (MIC) were determined for each of the toxic compounds.
To measure the minimum inhibitory concentration of the toxic peptides, 10 to 15 A. thaliara seeds were place on solid Arabidopsis growth media with decreasing concentrations of toxic peptide. The seeds were incubated for 4 days in the dark and then scored for germination.

PB1X-2AΔ (pDTF1) = assay: Growth on peptides, deletion strain transformed with ATPTR2B; format: cell-based, Saccharomyces cerevisiae; parameters: key: +: Growth was scored as uniform colony formation; -: negative controls which showed no growth; conditions: PBIX-2AΔ (pDTF1); 80 μM peptide in SC medium, 30° C., 72 hrs
Method: as §1, with “Thus, the peptide transport mutant PB1X-9B and deletion strain PB1X-2AΔ transformed with plasmids pPTF4 (ATPTR2A) or pDTF1 (ATPTR2B) were grown on various peptides to assess the specificity of the plant peptide transporter. In” for “In”

S288C = assay: Toxic peptide disk assay, wild type; format: cell-based, Saccharomyces cerevisiae; conditions: disk with 0.38 μmoles, lawn of 5×10^6 cells, 30° C., 1 to 2 days, mean ± standard error
Method: (§2) Since ptr mutants are deficient in peptide transport, they are unable to take up toxic peptides. This inability renders such mutants resistant to the toxic effect of the peptides. In order to determine whether the polynucleotides of the present invention could restore toxic peptide sensitivity to ptr2 mutants, the sensitivity of plasmid-transformed cells was determined. Sensitivity to toxic amino acids and peptides was measured as described by Island, M. D. et al. (J. Bacteriol. 169:2132-2136 (1987)). Briefly, a filter disk containing 0.38 μmoles of the toxic compound was placed on a lawn containing 5×10^6 cells and the plate incubated at 30° C. for 1 to 2 days. Resulting halos were measured across their diameter. The toxic dipeptides Leu-Eth, Ala-Eth, Leu-F-Phe and Oxalysine were synthesized by standard solution phase techniques (Naider, F. et al., J. Biol. Chem. 249:9-20 (1974). The results of this experiment are shown in Table 2 (values are the mean of the diameters of the observed zone of inhibition in millimeters±standard error of the mean of at least two independent experiments).

PB1X-9B [4] = assay: Toxic peptide disk assay, peptide transport mutant; format: cell-based, Saccharomyces cerevisiae; conditions: for diameter of zone of inhibition: disk with 0.38 μmoles, lawn of 5×10^6 cells, 30° C., 1 to 2 days, mean ± standard error
Method: as §2

PB1X-9B (pJP9) [5] = assay: Toxic peptide disk assay, mutant with yeast peptide transport gene; format: cell-based, Saccharomyces cerevisiae; conditions: disk with 0.38 μmoles, lawn of 5×10^6 cells, 30° C., 1 to 2 days, mean ± standard error
Method: as §2

PB1X-9B (pPTF4) [6] = assay: Toxic peptide disk assay, mutant with plant gene ATPTR2A; format: cell-based, Saccharomyces cerevisiae; conditions: for diameter of zone of inhibition: disk with 0.38 μmoles, lawn of 5×10^6 cells, 30° C., 1 to 2 days, mean ± standard error
Method: as §2

[7] = system: S. cerevisiae strains tested; assay: Toxic peptide disk assay, statements covering several strains; format: cell-based, Saccharomyces cerevisiae; conditions: for sensitivity to toxic peptide: all strains tested
Method: as §2

[8] = PB1X-9B[pPTF4], pH 5.5, dileucine and leucine at 100-fold

Molecule: CC(C)C[C@H](NC(=O)[C@@H](N)Cc1c[nH]cn1)C(=O)O [His-Leu] (H-His-Leu-OH)
- growth on peptide (PB1X-9B [1]): -
- growth on peptide (PB1X-9B (pJP9) [2]): +
- growth on peptide (PB1X-9B (pPTF4) [3]): +

Molecule: CC(C)C[C@H](NC(=O)[C@@H](N)CC(C)C)C(=O)O [Leu-Leu, L-leucyl-L-leucine]
- growth on peptide (PB1X-9B [1]): -
- growth on peptide (PB1X-9B (pJP9) [2]): +
- growth on peptide (PB1X-9B (pPTF4) [3]): +
- competition for uptake of [3H]-dileucine (ATPTR2Ap; [8]): inhibited

Molecule: CC(C)C[C@H](NC(=O)[C@@H](N)CCCCN)C(=O)O [Lys-Leu, L-lysyl-L-leucine] (H-Lys-Leu-OH)
- growth on peptide (PB1X-9B [1]): -
- growth on peptide (PB1X-9B (pJP9) [2]): +
- growth on peptide (PB1X-9B (pPTF4) [3]): +

Molecule: CSCC[C@H](N)C(=O)O [Met]
- reversal of toxicity by competitor (in words) (A. thaliana seedlings; toxic peptide Ala-Eth): unable to reverse the inhibition
- root growth with toxic peptide plus competitor (A. thaliana seedlings; toxic peptide Ala-Eth): 0 percentage of control root gro
- reversal of toxicity by competitor (in words) (A. thaliana seedlings; toxic peptide Leu-Eth): unable to reverse the inhibition
- root growth with toxic peptide plus competitor (A. thaliana seedlings; toxic peptide Leu-Eth): 0 percentage of control root gro

Molecule: NCCOC[C@H](N)C(=O)O [Oxa-Lys, oxalysine]
- root length at which growth was arrested (A. thaliana seeds): 1-2 mm

Molecule: CC(C)C[C@H](N)C(=O)O [leucine]
- competition for uptake of [3H]-dileucine (ATPTR2Ap; 3 h): no effect
- competition for uptake of [3H]-dileucine (ATPTR2Ap; [8]): did not reduce uptake

Molecule: Ala-Ala-Leu: tripeptide growth substrate (AAL)
- growth on peptide (PB1X-9B [1]): -
- growth on peptide (PB1X-9B (pJP9) [2]): +
- growth on peptide (PB1X-9B (pPTF4) [3]): +

Molecule: Gly-Leu-Gly-Leu: SEQ ID NO:6 (GLGL)
- growth on peptide (PB1X-9B [1]): -
- growth on peptide (in words) (PB1X-9B (pJP9) [2]): showed growth on all peptides except
- growth on peptide (PB1X-9B (pJP9) [2]): -
- growth on peptide (PB1X-9B (pPTF4) [3]): -

Molecule: Lys-Ala-Ala: tripeptide growth substrate (KAA)
- growth on peptide (PB1X-9B [1]): -
- growth on peptide (PB1X-9B (pJP9) [2]): +
- growth on peptide (PB1X-9B (pPTF4) [3]): +
- growth on peptide (PB1X-2AΔ (pDTF1)): +

Molecule: Lys-Leu-Ala-Eth: ethionine-containing peptide of four residues
- diameter of zone of inhibition (S288C): 0 millimeters
- diameter of zone of inhibition (PB1X-9B [4]): 0 millimeters
- diameter of zone of inhibition (PB1X-9B (pJP9) [5]): 0 millimeters
- diameter of zone of inhibition (PB1X-9B (pPTF4) [6]): 0 millimeters
- sensitivity to toxic peptide [7]: None of the strains tested were sensitive

Molecule: Lys-Leu-Leu-Ala-Eth: ethionine-containing peptide, SEQ ID NO:13 (KLLA-Eth)
- diameter of zone of inhibition (S288C): 0 millimeters
- diameter of zone of inhibition (PB1X-9B [4]): 0 millimeters
- diameter of zone of inhibition (PB1X-9B (pJP9) [5]): 0 millimeters
- diameter of zone of inhibition (PB1X-9B (pPTF4) [6]): 0 millimeters
- sensitivity to toxic peptide [7]: None of the strains tested were sensitive

Molecule: Lys-Leu-Leu-Eth: ethionine-containing peptide of four residues
- diameter of zone of inhibition (S288C): 0 millimeters
- diameter of zone of inhibition (PB1X-9B [4]): 0 millimeters
- diameter of zone of inhibition (PB1X-9B (pJP9) [5]): 0 millimeters
- diameter of zone of inhibition (PB1X-9B (pPTF4) [6]): 0 millimeters
- sensitivity to toxic peptide [7]: None of the strains tested were sensitive

Molecule: Lys-Leu-Leu-Leu-Eth: ethionine-containing peptide, SEQ ID NO:14 (KLLL-Eth)
- diameter of zone of inhibition (S288C): 0 millimeters
- diameter of zone of inhibition (PB1X-9B [4]): 0 millimeters
- diameter of zone of inhibition (PB1X-9B (pJP9) [5]): 0 millimeters
- diameter of zone of inhibition (PB1X-9B (pPTF4) [6]): 0 millimeters
- sensitivity to toxic peptide [7]: None of the strains tested were sensitive

Molecule: Thr-Pro-Arg-Lys: SEQ ID NO:7 (TPRK)
- growth on peptide (PB1X-9B [1]): -
- growth on peptide (in words) (PB1X-9B (pJP9) [2]): showed growth on all peptides except
- growth on peptide (PB1X-9B (pJP9) [2]): -
- growth on peptide (PB1X-9B (pPTF4) [3]): -
- growth on peptide (PB1X-2AΔ (pDTF1)): -

Molecule: Trp-His-Trp-Leu-Gln-Leu: SEQ ID NO:9 (WHWLQL)
- growth on peptide (PB1X-9B [1]): -
- growth on peptide (in words) (PB1X-9B (pJP9) [2]): showed growth on all peptides except
- growth on peptide (PB1X-9B (pJP9) [2]): -
- growth on peptide (PB1X-9B (pPTF4) [3]): -
- growth on peptide (PB1X-2AΔ (pDTF1)): -

Molecule: fluorophenylalanine [F-Phe]
- diameter of zone of inhibition (S288C): 25.0 ± 4.0 millimeters
- sensitivity or resistance to toxic compound (PB1X-9B [4]): sensitive
- diameter of zone of inhibition (PB1X-9B [4]): 14.0 ± 1.0 millimeters
- diameter of zone of inhibition (PB1X-9B (pJP9) [5]): 20.0 ± 0.0 millimeters
- sensitivity or resistance to toxic compound (PB1X-9B (pPTF4) [6]): sensitive
- diameter of zone of inhibition (PB1X-9B (pPTF4) [6]): 19.5 ± 0.5 millimeters
- sensitivity to toxic compound ([7]; wild type (S288C) and transformants): less sensitive

Molecule: tetra-Lys: SEQ ID NO:5 (KKKK)
- growth on peptide (PB1X-9B [1]): -
- growth on peptide (in words) (PB1X-9B (pJP9) [2]): showed growth on all peptides except
- growth on peptide (PB1X-9B (pJP9) [2]): -
- growth on peptide (PB1X-9B (pPTF4) [3]): -
- growth on peptide (PB1X-2AΔ (pDTF1)): -

From US6080542A, “Plant peptide transport gene” (priority 1997, dated 2000)
